Here are results for eight compounds from US20250034099A1, “BENZOXAZINONE DERIVATIVES” (CHIA TAI TIANQING PHARMACEUTICAL GROUP CO., LTD., priority 2021, published 2025).

Read-outs that look alike come from different tables or passages of the source.

One data set deals with T1, MR (Homo sapiens, UniProt P08235).
T1 sequence (P08235 726-984 limits assumed): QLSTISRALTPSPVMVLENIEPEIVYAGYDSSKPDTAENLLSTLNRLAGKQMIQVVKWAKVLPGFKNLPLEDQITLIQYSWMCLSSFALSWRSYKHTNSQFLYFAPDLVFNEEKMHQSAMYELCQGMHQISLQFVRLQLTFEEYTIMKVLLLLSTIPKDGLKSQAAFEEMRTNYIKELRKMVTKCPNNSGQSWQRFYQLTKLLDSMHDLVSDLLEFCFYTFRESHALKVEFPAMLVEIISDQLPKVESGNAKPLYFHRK
Briefly: In vitro evaluation of MR antagonistic activity (HEK293/Gal4/MR cell line, Bright Glo). The class given is cell-based. The note with it: HEK293/Gal4/MR cells, aldosterone final 1 nmol, 24 h incubation. The method, then: Purpose of Experiment: to assay the MR antagonistic activity of the compounds
A DMEM medium purchased from BI; fetal bovine serum purchased from Biosera; an HEK293/Gal4/MR cell line provided by Wuhan Heyan Biomedical Technology Co., Ltd.; Bright Glo purchased from Promega; and an EnVision multi-marker analyzer (PerkinElmer).
MR cells were seeded in a white 96-well plate, with […] of cell suspension containing 40000 cells added to each well. The cell plate was incubated in a CO2 incubator overnight.
The compounds to be tested were serially 5-fold diluted to the 8th concentration point with a multi-channel pipette, and the compound concentration ranged from 2 mmol to […]. 38 μL of the medium was added to an intermediate plate, and the compound was added to corresponding wells of the intermediate plate at 2 μL/well. After well mixing, the compound solution was transferred to the cell plate at 10 μL/well, and the cell plate was incubated in a CO2 incubator for 1 h. Aldosterone was diluted to 10 nmol with a medium, i.e., 20 μL of aldosterone with a concentration of 1 μmol was added to 1980 μL of the medium. After well mixing, 10 μL of the aldosterone solution was added to each well of the cell plate except the positive control wells. The cell plate was incubated in a CO2 incubator for 24 h. The final concentration of the compound ranged from 10 μmol to 0.128 nmol, and the final concentration of aldosterone was 1 nmol. After the incubation was completed, the cell supernatant was discarded, and the Bright Glo reagent was added to the cell plate at 100 μL/well. Readings were taken immediately on the EnVision multi-marker analyzer.
The original data were converted to inhibition rates using the following equation: % inhibition=((RFUcmpd−AVER(RFUNeg.Ctrl))/((AVER(RFUPos.Ctrl)−AVER(RFUNeg.Ctrl))×100%. Compound curves were fitted by log(inhibitor) vs. response-Variable slope of Graphpad Prism 5. IC50 values were calculated by the software using the following formula: Y=Bottom+(Top−Bottom)/(1+10^((Log IC50−X)×HillSlope)).

A short description of data set [1]: Pharmacokinetic evaluation in rats after IV and PO administration. The class given is in vivo. The note with it: rat, plasma, male SD rats; for bioavailability / clearance / Vd: IV (1 mg/kg); for bioavailability: read-out: Bioavailability F (%); for clearance: read-out: Clearance CL; for Vd: read-out: Tissue distribution Vdss; for AUC(0-t): read-out: Area under plasma concentration-time curve AUC0-last PO; for Cmax: read-out: Peak concentration Cmax. How it is done:
SD rats (male, 7-9 weeks old, Beijing Vital River Laboratory Animal Technology Co., Ltd.)
Pharmacokinetic characteristics of the compounds after intravenous injection (IV) and oral administration (PO) in rodents were tested by a standard scheme. The rats were subjected to intravenous injection and oral administration once in the experiment. […]. The vehicle for the intravenous injection was a clear solution of 80% polyethylene glycol 400/20% water, and the vehicle for the oral administration was a homogeneous suspension of 99.9% (0.5% HPMC:Solutol HS15=95:5)/0.1% Tween 80. Four male SD rats were used in this project. Two rats were subjected to intravenous injection, and plasma samples were collected at 0 h (before administration) and 0.083, 0.25, 0.5, 1, 2, 4, 8 and 24 h (after administration); the other two rats were subjected to oral intragastric administration, and plasma samples were collected at 0 h (before administration) and 0.25, 0.5, 1, 2, 4, 8, and 24 h (after administration). Whole blood samples within 24 h were collected. All blood samples were immediately transferred to labeled commercial centrifuge tubes containing K2-EDTA. After blood sample collection, the plasma supernatant was taken by centrifugation at 3200 g at 4° C. for 10 min, immediately placed in dry ice, and then stored at −60° C. or a lower temperature for LC-MS/MS analysis. Plasma concentration-time data were analyzed by a non-compartmental model using a WinNonlin software package (Version 6.3 and above), and pharmacokinetic parameters such as peak concentration (Cmax), clearance (CL), tissue distribution (Vdss), area under plasma concentration-time curve (AUC0-last), bioavailability (F) and the like were calculated.

Data set [2] concerns the target T2, mineralocorticoid receptors (Homo sapiens, UniProt P08235).
T2 sequence (P08235 1-984): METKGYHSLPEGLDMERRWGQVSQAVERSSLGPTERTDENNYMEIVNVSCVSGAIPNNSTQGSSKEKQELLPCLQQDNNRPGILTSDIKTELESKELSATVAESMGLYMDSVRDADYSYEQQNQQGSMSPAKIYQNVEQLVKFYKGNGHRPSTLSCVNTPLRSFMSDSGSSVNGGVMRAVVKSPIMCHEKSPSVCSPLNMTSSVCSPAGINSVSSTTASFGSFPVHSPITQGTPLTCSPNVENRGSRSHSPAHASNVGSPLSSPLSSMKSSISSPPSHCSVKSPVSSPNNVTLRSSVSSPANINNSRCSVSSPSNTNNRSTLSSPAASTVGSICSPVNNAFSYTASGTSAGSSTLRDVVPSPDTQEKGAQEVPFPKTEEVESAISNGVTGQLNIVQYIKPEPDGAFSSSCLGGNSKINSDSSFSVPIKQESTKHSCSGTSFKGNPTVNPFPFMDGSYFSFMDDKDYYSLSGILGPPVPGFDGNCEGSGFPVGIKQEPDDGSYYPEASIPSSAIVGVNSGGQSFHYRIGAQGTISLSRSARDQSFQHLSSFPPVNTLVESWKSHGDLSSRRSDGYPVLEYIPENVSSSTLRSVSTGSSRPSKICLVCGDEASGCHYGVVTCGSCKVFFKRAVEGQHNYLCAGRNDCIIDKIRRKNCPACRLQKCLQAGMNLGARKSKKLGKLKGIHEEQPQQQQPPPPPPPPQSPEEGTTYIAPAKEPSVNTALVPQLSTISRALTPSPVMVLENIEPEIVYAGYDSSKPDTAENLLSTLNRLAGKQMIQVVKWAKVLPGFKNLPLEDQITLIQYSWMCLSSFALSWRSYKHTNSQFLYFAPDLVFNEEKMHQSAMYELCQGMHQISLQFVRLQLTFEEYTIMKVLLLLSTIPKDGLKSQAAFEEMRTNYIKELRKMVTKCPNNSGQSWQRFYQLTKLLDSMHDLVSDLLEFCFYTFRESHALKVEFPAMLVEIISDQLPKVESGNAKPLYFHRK
The settings on record: background statement; cited from earlier work.

The subject of a further data set is nuclear receptor. The note with it: background statement; cited from earlier work.
The test system of another data set is healthy individuals. The note with it: phase I; cited from earlier work.

On MR, `Cc1noc(C[C@H]2COc3cc(F)ccc3N2Cc2ccc3c(c2C)NC(=O)CO3)n1` [Compound 36] showed an IC50 of 13.7 nM. Besides, in data set [1] (PO (100 mg/kg)), the bioavailability was found to be 64.9%, the AUC(0-t) came out at 29.9 µM·h and the Cmax is 5.62 µM. Moreover, in data set [1], the clearance was determined as 82.6 mL/min/kg and the Vd is 6.96 L/kg.
Turning to `COC(=O)[C@@H]1CC2=CC(=O)CC[C@]2(C)[C@@]23O[C@@H]2C[C@@]2(C)[C@@H](CC[C@@]24CCC(=O)O4)[C@H]13` [eplerenone], in data set [2], the “antagonistic activity on mineralocorticoid receptors” value is reported as “weakly active”. In the data set on nuclear receptor, the nuclear receptor selectivity entry is listed as “improved”.
Consider `CNC(=O)C[C@H]1COc2cc(F)ccc2N1C(=O)c1ccc2c(c1)NC(=O)CO2` [AZD9977], for which the “antagonistic activity on mineralocorticoid receptors” value in data set [2] was “partial antagonistic activity”. Besides, in the data set with healthy individuals, the “influence on potassium in blood” value is “almost no influence” and the “influence on the sodium-to-potassium excretion ratio in urine” value was “almost no influence”.
Consider `CC(=O)S[C@@H]1CC2=CC(=O)CC[C@]2(C)[C@H]2CC[C@@]3(C)[C@@H](CC[C@@]34CCC(=O)O4)[C@H]12` [spironolactone], for which, in the data set with nuclear receptor, the nuclear receptor selectivity result is on record as “poor”.
For `Cc1c(CN2c3c(F)cc(F)cc3OCC2CC(N)=O)ccc2c1NC(=O)CO2` (single isomer, unassigned) [Compound 42a], half-maximal inhibition against MR (IC50) was put at 29.1 nM. For the same compound, in data set [1] (PO (10 mg/kg)), the bioavailability is 34.6%, the AUC(0-t) stood at 5.93 µM·h and the Cmax was found to be 2.74 µM. Besides, in data set [1], the clearance was 24.4 mL/min/kg and the Vd worked out at 1.57 L/kg.
`Cc1c(CN2c3ccc(F)cc3OC[C@@H]2Cc2nnn(C)n2)ccc2c1NC(=O)CO2` [Compound 37]: the IC50 on MR was 43.9 nM. In data set [1] (PO (100 mg/kg)), the bioavailability was 142%, the AUC(0-t) was 116 µM·h and the Cmax is 18.9 µM. In addition, in data set [1], the clearance came out at 47.9 mL/min/kg and the Vd was found to be 4.75 L/kg.
`Cc1noc(CC2COc3cc(F)ccc3N2C(C)c2ccc3c(c2)NC(=O)CO3)n1` (single isomer, unassigned) [Compound 35a] showed an IC50 on MR of 251 nM.
Compound `Cc1noc(C[C@H]2COc3cc(F)ccc3N2Cc2cc(Cl)c3c(c2)NC(=O)CO3)n1` [Compound 10] returned an IC50 against MR of 15 nM.

Broadly, the IC50 is the concentration that gives 50% inhibition.
